Legend:
[1] = molecular target: T1, wild type LRRK2 overexpressed in recombinant HEK-293T cells (Homo sapiens, UniProt Q5S007); test: pS935 LRRK2 Cell Assay (HTRF, phospho-LRRK2 Ser935); type: cell-based; details: LRRK2 Inhibition, Table 8, 2 hours compound incubation
T1 construct: host or cells: HEK293T (transient transfection with pCMV-LRRK2 WT plasmid)
Outline: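 Phospho-Ser935 LRRK2 measured by two-antibody HTRF (Eu-cryptate donor, d2 acceptor; 665/615 nm ratio) after overnight detection at 23° C. Before lysis, transiently LRRK2-transfected HEK-293T cells were exposed 2 h at 37° C to a 9-point, 3-fold series from 10 μM, with DMSO at 0.2%.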

LRRK2 wild type enzyme = LRRK2 wild type enzyme (Homo sapiens, UniProt Q5S007); test: Biochemical Assay: LRRK2 TR-FRET (LanthaScreen) kinase assay with LRRKtide substrate; details: LRRK2 Inhibition, Table 8
Outline: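 TR-FRET detection (Tb-labelled phospho-LRRKtide antibody, EDTA stop, 30 min) followed a 120 min, 23 °C reaction of 3 nM wild-type human LRRK2 with LRRKtide (400 nM) and ATP (25 μM) in Tris pH 8.0. Compounds: 11-point 3-fold series from 10 μM, 15 min enzyme preincubation.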

T1 sequence (Q5S007 whole entry): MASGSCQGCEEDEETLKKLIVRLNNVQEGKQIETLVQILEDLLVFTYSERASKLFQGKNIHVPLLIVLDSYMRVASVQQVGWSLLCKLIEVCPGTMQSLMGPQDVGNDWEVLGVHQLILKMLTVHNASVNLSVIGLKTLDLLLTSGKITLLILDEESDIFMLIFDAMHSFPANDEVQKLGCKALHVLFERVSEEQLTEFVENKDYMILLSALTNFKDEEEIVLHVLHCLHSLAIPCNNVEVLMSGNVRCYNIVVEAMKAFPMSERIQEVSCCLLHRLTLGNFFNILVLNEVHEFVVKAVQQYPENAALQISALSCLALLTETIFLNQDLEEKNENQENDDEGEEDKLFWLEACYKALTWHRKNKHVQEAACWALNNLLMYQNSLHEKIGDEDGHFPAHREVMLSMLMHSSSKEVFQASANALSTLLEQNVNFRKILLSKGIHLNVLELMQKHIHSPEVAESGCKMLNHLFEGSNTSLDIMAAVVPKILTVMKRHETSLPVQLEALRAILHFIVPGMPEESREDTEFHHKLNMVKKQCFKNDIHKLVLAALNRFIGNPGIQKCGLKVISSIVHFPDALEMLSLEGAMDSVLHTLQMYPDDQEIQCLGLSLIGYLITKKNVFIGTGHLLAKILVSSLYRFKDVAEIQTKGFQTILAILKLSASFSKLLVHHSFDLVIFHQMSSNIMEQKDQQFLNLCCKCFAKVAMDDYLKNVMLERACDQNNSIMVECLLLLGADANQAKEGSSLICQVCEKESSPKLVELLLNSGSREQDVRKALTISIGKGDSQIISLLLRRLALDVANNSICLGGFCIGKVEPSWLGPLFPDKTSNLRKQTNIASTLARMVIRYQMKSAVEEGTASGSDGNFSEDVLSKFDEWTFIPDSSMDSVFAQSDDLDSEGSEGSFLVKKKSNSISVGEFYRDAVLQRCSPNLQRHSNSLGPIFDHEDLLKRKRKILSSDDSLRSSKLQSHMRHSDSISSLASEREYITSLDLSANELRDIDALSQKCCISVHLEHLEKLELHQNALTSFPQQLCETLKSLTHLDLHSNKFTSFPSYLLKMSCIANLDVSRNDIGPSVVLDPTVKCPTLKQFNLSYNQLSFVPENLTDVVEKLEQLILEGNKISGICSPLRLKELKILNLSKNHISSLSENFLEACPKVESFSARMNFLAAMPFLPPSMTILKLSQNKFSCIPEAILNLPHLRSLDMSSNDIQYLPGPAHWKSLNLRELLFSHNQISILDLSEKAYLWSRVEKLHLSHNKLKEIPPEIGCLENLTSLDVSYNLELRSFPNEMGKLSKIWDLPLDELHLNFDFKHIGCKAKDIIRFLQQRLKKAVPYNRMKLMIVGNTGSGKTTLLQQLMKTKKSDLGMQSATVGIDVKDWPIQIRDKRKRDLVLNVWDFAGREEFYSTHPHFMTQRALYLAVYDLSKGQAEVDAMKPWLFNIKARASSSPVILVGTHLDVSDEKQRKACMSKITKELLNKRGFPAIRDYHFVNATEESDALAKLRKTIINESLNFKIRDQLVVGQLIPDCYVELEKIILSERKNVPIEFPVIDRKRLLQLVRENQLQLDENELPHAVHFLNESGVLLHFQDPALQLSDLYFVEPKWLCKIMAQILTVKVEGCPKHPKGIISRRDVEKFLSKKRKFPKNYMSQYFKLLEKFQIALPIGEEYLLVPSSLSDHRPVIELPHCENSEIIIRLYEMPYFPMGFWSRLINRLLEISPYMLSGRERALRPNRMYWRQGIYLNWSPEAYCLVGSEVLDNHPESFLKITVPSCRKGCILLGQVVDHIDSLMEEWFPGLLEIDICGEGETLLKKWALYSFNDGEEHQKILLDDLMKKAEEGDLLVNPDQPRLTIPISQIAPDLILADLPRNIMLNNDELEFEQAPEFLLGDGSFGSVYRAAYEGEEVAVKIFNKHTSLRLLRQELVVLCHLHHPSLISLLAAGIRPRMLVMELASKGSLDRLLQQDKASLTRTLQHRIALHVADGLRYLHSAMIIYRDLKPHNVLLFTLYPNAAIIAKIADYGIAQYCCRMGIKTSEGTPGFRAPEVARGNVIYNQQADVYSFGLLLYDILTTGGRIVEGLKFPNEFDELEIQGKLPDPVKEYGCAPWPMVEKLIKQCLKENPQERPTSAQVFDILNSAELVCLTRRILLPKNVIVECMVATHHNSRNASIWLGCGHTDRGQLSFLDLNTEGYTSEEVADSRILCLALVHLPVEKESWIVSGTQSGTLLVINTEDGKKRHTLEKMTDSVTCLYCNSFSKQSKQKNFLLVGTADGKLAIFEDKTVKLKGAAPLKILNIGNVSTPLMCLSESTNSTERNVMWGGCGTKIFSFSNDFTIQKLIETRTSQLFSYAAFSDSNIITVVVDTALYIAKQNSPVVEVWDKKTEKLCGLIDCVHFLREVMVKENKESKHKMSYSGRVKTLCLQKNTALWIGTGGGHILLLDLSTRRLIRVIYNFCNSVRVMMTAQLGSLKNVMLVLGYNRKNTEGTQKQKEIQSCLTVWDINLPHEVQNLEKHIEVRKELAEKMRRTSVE
Sequence of LRRK2 wild type enzyme (Q5S007 whole entry): as above

Row | Compound | IC50 [1] | IC50 (LRRK2 wild type enzyme)
1 | N#Cc1ccc2ncc3nc(CC(=O)NCC4CC4)n(C4CCOCC4)c3c2c1 [Compound 343, N-cyclopropylmethyl{12-cyano-3-(tetrahydro-2H-pyran-4-yl)-3,5,8-triazatricyclo[7.4.0.0^2,6]trideca-1,4,6,8,10,12-hexaen-4-yl}acetamide] | 135 nM | 2.81 nM
2 | C[C@@H]1C[C@H](n2c(CC(=O)Nc3ncc(C4CC4)cn3)nc3cnc4ccc(C#N)cc4c32)CCO1 [Compound 344, N-(5-cyclopropyl-2-pyrimidinyl){3-[(2R)-2-methyltetrahydro-2H-pyran-4-yl]-12-cyano-3,5,8-triazatricyclo[7.4.0.0^2,6]trideca-1(9),2(6),4,7,10,12-hexaen-4-yl}acetamide] | 4.11 nM | 0.453 nM
3 | C[C@@H]1C[C@H](n2c(CC(=O)Nc3ccnn3C3COC3)nc3cnc4ccc(C#N)cc4c32)CCO1 [Compound 345, N-[1-(3-oxetanyl)-5-pyrazolyl]{3-[(2R,4R)-2-methyltetrahydro-2H-pyran-4-yl]-12-cyano-3,5,8-triazatricyclo[7.4.0.0^2,6]trideca-1(9),2(6),4,7,10,12-hexaen-4-yl}acetamide] | 52.6 nM | 0.573 nM
4 | C[C@@H]1C[C@H](n2c(CC(=O)Nc3ccn(C4COC4)n3)nc3cnc4ccc(C#N)cc4c32)CCO1 [Compound 346, N-[1-(3-oxetanyl)-3-pyrazolyl]{2-[(2R,4R)-2-methyltetrahydro-2H-pyran-4-yl]-12-cyano-3,5,8-triazatricyclo[7.4.0.0^2,6]trideca-1(9),2(6),4,7,10,12-hexaen-4-yl}acetamide] | 28.5 nM | 0.555 nM
5 | C[C@@H]1C[C@H](n2c(CC(=O)N[C@H]3C[C@@H]3c3cccnc3)nc3cnc4ccc(C#N)cc4c32)CCO1 [Compound 347, N-[(1S,2R)-2-(3-pyridyl)cyclopropyl]{3-[(2R,4R)-2-methyltetrahydro-2H-pyran-4-yl]-12-cyano-3,5,8-triazatricyclo[7.4.0.0^2,6]trideca-1(9),2(6),4,7,10,12-hexaen-4-yl}acetamide] | 144 nM | 1.28 nM
6 | C[C@@H]1C[C@H](n2c(CC(=O)N[C@@H]3C[C@H]3c3cccnc3)nc3cnc4ccc(C#N)cc4c32)CCO1 [Compound 348, N-[(1R,2S)-2-(3-pyridyl)cyclopropyl]{3-[(2R,4R)-2-methyltetrahydro-2H-pyran-4-yl]-12-cyano-3,5,8-triazatricyclo[7.4.0.0^2,6]trideca-1(9),2(6),4,7,10,12-hexaen-4-yl}acetamide] | 32.3 nM | 0.724 nM
7 | Cc1noc(NC(=O)Cc2nc3cnc4ccc(C#N)cc4c3n2[C@@H]2CCO[C@H](C)C2)c1C [Compound 349, N-(3,4-dimethyl-5-isoxazolyl){3-[(2R,4R)-2-methyltetrahydro-2H-pyran-4-yl]-12-cyano-3,5,8-triazatricyclo[7.4.0.0^2,6]trideca-1(9),2(6),4,7,10,12-hexaen-4-yl}acetamide] | 7.43 nM | 0.547 nM
8 | Cc1cnn(C)c1NC(=O)Cc1nc2cnc3ccc(C#N)cc3c2n1[C@@H]1CCO[C@H](C)C1 [Compound 350, N-(1-methyl-4-methyl-5-pyrazolyl){3-[(2R,4R)-2-methyltetrahydro-2H-pyran-4-yl]-12-cyano-3,5,8-triazatricyclo[7.4.0.0^2,6]trideca-1(9),2(6),4,7,10,12-hexaen-4-yl}acetamide] | 15.4 nM | 0.487 nM
9 | C[C@@H]1C[C@H](n2c(CC(=O)Nc3ccno3)nc3cnc4ccc(Cl)cc4c32)CCO1 [Compound 351, N-5-isoxazolyl{3-[(2R,4R)-2-methyltetrahydro-2H-pyran-4-yl]-12-chloro-3,5,8-triazatricyclo[7.4.0.0^2,6]trideca-1(9),2(6),4,7,10,12-hexaen-4-yl}acetamide] | 10.4 nM | 0.597 nM

— patent US20250270209A1 (INTERLINE THERAPEUTICS, INC., priority 2022, published 2025)
